For 15 compounds, IC50 and melting point results are on record in PMC8587101, “Design and Synthesis of Novel Betulin Derivatives Containing Thio-/Semicarbazone Moieties as Apoptotic Inducers through Mitochindria-Related Pathways” (Molecules, 2021).

Values joined by “and” are separate entries in the source; they are usually repeats but may differ in a detail not shown here. Identical values can stand only once. Like-named read-outs stand apart in the source and are kept apart here.

Broadly, the IC50 is the concentration at which inhibition is half-maximal. What is called melting point is the temperature, or range, at which the solid turns liquid.

Data set [1] deals with human breast carcinoma cells (MCF-7). Put plainly: MTT cytotoxicity assay, MCF-7. Type of data set: cell-based. The note with it: read-out: IC50 (μM) MCF-7. (In general: Formazan colour is commonly taken as a measure of viable cells.)
For data set [2], the system named is human lung carcinoma cells (A549). Put plainly: MTT cytotoxicity assay, A549. The data set is classed as cell-based. The note with it: read-out: IC50 (μM) A549.
Data set [3] has as its system human colorectal cells (HCT-116). Put plainly: MTT cytotoxicity assay, HCT-116. Type of data set: cell-based. As to conditions: read-out: IC50 (μM) HCT-116.
The subject of data set [4] is normal human gastric epithelial cells (GES-1). Put plainly: MTT cytotoxicity assay, GES-1 normal cells. Type of data set: cell-based. As to conditions: read-out: IC50 (μM) GES-1.
[5] abbreviates: Homo sapiens, MCF7, 48 h, MTT, 48 h, means ± SD of three experiments.
Setting [6] is: A549, MTT, 48 h, means ± SD of three experiments.
Where [7] appears, read: HCT-116, MTT, 48 h, means ± SD of three experiments.
Setting [8] is: GES1, MTT, 48 h, normal cells, means ± SD of three experiments, “-” not active.
Setting [9] is: MTT, 48 h, means ± SD of three experiments.

In the case of `C=C(C)[C@@H]1CC[C@]2(CO)CC[C@]3(C)[C@H](CC[C@@H]4[C@@]5(C)CC[C@H](O)C(C)(C)[C@@H]5CC[C@]43C)[C@@H]12` [Compound 1, lup-20(29)-ene-3β,28-diol, reference compound], the IC50 in data set [1] (Homo sapiens, MCF7, 48 h) is 19.4 ± 0.93 µM; in data set [2] (A549, 48 h), 27.1 ± 1.2 µM; in data set [3] (HCT-116, 48 h) it was 30 ± 1.22 µM; in data set [4] (GES1, 48 h), 108 ± 4.34 µM.
In the case of `C=C(C)[C@@H]1CC[C@]2(/C=N/NC(=O)Nc3ccc(Cl)cc3)CC[C@]3(C)C(CCC4[C@@]5(C)CC[C@H](O)C(C)(C)C5CC[C@]43C)C12` (stereo partly drawn) [Compound 7a, Lup-20(29)-ene-3β-ol-28-N-(4-chlorophenyl)semicarbazide], the melting point lay in the range of 227.2 to 228.3 °C. The IC50 in data set [1] (setting [5]) was found to be 8.57 ± 0.6 µM. For the same compound, in data set [2] (setting [6]), the IC50 amounted to 18.1 ± 1.03 µM. Moreover, in data set [3] (setting [7]), the IC50 came out at 34.8 ± 1.25 µM. Moreover, the IC50 in data set [4] (setting [8]) came to 70.8 ± 2.12 µM.
With `C=C(C)[C@@H]1CC[C@]2(/C=N/NC(=O)Nc3ccc(C#N)cc3)CC[C@]3(C)C(CCC4[C@@]5(C)CC[C@H](O)C(C)(C)C5CC[C@]43C)C12` (stereo partly drawn) [Compound 7b, Lup-20(29)-ene-3β-ol-28-N-(4-cyanophenyl)semicarbazide], the melting point was 236.5 to 238 °C. Further, the half-inhibitory concentration (IC50) in data set [1] (setting [5]) was less than 10 µM. Further, the 50% inhibitory concentration (IC50) in data set [1] (setting [9]) was 7.88 ± 0.54 µM. In addition, the IC50 in data set [2] (setting [6]) was found to be 25.1 ± 1.01 µM. Also, the IC50 in data set [3] (setting [7]) came out at 51.1 ± 2.52 µM. For the same compound, the IC50 in data set [4] (setting [8]) worked out at 85.4 ± 3.37 µM.
As for `C=C(C)[C@@H]1CC[C@]2(/C=N/NC(=O)Nc3ccc(OC)cc3)CC[C@]3(C)C(CCC4[C@@]5(C)CC[C@H](O)C(C)(C)C5CC[C@]43C)C12` (stereo partly drawn) [Compound 7c, Lup-20(29)-ene-3β-ol-28-N-(4-methoxyphenyl)semicarbazide], the melting point lay in the range of 214.2 to 216 °C. In addition, in data set [1] (setting [5]), the 50% inhibitory concentration (IC50) was found to be 44.4 ± 2.26 µM. Moreover, the 50% inhibitory concentration (IC50) in data set [2] (setting [6]) was more than 80 µM. In data set [3] (setting [7]), the IC50 is more than 80 µM. In data set [4] (setting [8]), the IC50 was more than 80 µM.
The compound `C=C(C)[C@@H]1CC[C@]2(/C=N/NC(=O)Nc3ccc(C(F)(F)F)cc3)CC[C@]3(C)C(CCC4[C@@]5(C)CC[C@H](O)C(C)(C)C5CC[C@]43C)C12` (stereo partly drawn) [Compound 7d, Lup-20(29)-ene-3β-ol-28-N-(4-(trifluoromethyl)phenyl)semicarbazide] gave a melting point of 221.5 to 222.7 °C. Besides, in data set [1] (setting [5]), the IC50 turned out to be 15.3 ± 1.23 µM. Besides, the IC50 in data set [2] (setting [6]) was 29.4 ± 1.12 µM. In data set [3] (setting [7]), the IC50 came out at 28.6 ± 1.36 µM. For the same compound, the half-maximal inhibitory concentration (IC50) in data set [4] (setting [8]) stood at 168 ± 4.59 µM.
In the case of `C=C(C)[C@@H]1CC[C@]2(/C=N/NC(=O)Nc3cccc(C(F)(F)F)c3)CC[C@]3(C)C(CCC4[C@@]5(C)CC[C@H](O)C(C)(C)C5CC[C@]43C)C12` (stereo partly drawn) [Compound 7e, Lup-20(29)-ene-3β-ol-28-N-(3-(trifluoromethyl)phenyl)semicarbazide], the melting point was in the range of 223.4 to 225.1 °C. Besides, in data set [1] (setting [5]), the IC50 was less than 10 µM. Besides, the IC50 in data set [1] (setting [9]) was 5.86 µM and 5.96 µM. The IC50 in data set [2] (setting [6]) is 43.8 ± 1.44 µM. In addition, in data set [3] (setting [7]), the half-maximal inhibitory concentration (IC50) is 26.1 ± 1.17 µM. Moreover, the IC50 in data set [4] (setting [8]) is 196 ± 5.82 µM.
Regarding `C=C(C)[C@@H]1CC[C@]2(/C=N/NC(=O)Nc3cccc(C)c3)CC[C@]3(C)C(CCC4[C@@]5(C)CC[C@H](O)C(C)(C)C5CC[C@]43C)C12` (stereo partly drawn) [Compound 7f, Lup-20(29)-ene-3β-ol-8-N-(m-tolyl)semicarbazide], the melting point fell in the range of 224.2 to 226 °C. In data set [1] (setting [5]), the half-inhibitory concentration (IC50) turned out to be 26.8 ± 1.34 µM. For the same compound, the IC50 in data set [2] (setting [6]) was more than 80 µM. Moreover, the IC50 in data set [3] (setting [7]) is more than 80 µM. In data set [4] (setting [8]), the 50% inhibitory concentration (IC50) was more than 80 µM.
Regarding `C=C(C)[C@@H]1CC[C@]2(/C=N/NC(=O)Nc3ccc(Cl)c(C(F)(F)F)c3)CC[C@]3(C)C(CCC4[C@@]5(C)CC[C@H](O)C(C)(C)C5CC[C@]43C)C12` (stereo partly drawn) [Compound 7g, Lup-20(29)-ene-3β-ol-28-N-((3-trifluoromethyl-4-chloro)phenyl)semicarbazide], the melting point fell in the range of 211.6 to 213 °C. For the same compound, the half-inhibitory concentration (IC50) in data set [1] (setting [5]) was less than 10 µM. For the same compound, the IC50 in data set [1] (setting [9]) worked out at 7.06 ± 0.44 µM. The IC50 in data set [2] (setting [6]) amounted to 33.6 ± 1.15 µM. Besides, the half-inhibitory concentration (IC50) in data set [3] (setting [7]) turned out to be 13.5 ± 0.74 µM. Besides, the IC50 in data set [4] (setting [8]) was determined as 145 ± 3.88 µM.
Regarding `C=C(C)[C@@H]1CC[C@]2(/C=N/NC(=S)Nc3ccc(F)cc3)CC[C@]3(C)C(CCC4[C@@]5(C)CC[C@H](O)C(C)(C)C5CC[C@]43C)C12` (stereo partly drawn) [Compound 8a, Lup-20(29)-ene-3β-ol-28-N-(4-fluorophenyl)thiosemicarbazide], the melting point was 209.3 to 211 °C. For the same compound, in data set [1] (setting [5]), the IC50 was less than 10 µM. Besides, the IC50 in data set [1] (setting [9]) came out at 9.8 ± 0.58 µM. In data set [2] (setting [6]), the IC50 was determined as 24.1 ± 1.11 µM. In data set [3] (setting [7]), the IC50 worked out at 32.5 ± 1.26 µM. The IC50 in data set [4] (setting [8]) is 177 ± 5.02 µM.
On to `C=C(C)[C@@H]1CC[C@]2(/C=N/NC(=S)Nc3ccc(Cl)cc3)CC[C@]3(C)C(CCC4[C@@]5(C)CC[C@H](O)C(C)(C)C5CC[C@]43C)C12` (stereo partly drawn) [Compound 8b, Lup-20(29)-ene-3β-ol-28-N-(4-chlorophenyl)thiosemicarbazide], for which the melting point was 212.5 to 214 °C. For the same compound, the IC50 in data set [1] (setting [5]) is less than 10 µM. Moreover, in data set [1] (setting [9]), the IC50 turned out to be 7.79 ± 0.45 µM. In addition, in data set [2] (setting [6]), the IC50 was 18.7 ± 0.98 µM. In addition, the IC50 in data set [3] (setting [7]) was found to be 49.5 ± 1.44 µM. For the same compound, the IC50 in data set [4] (setting [8]) was 203 ± 5.74 µM.
In turn, `C=C(C)[C@@H]1CC[C@]2(/C=N/NC(=S)Nc3ccc(C)cc3)CC[C@]3(C)C(CCC4[C@@]5(C)CC[C@H](O)C(C)(C)C5CC[C@]43C)C12` (stereo partly drawn) [Compound 8c, Lup-20(29)-ene-3β-ol-28-N-(p-tolyl)thiosemicarbazide] registered a melting point of 206.4 to 208.2 °C. Also, the IC50 in data set [1] (setting [5]) came out at 28.6 ± 1.06 µM. The half-maximal inhibitory concentration (IC50) in data set [2] (setting [6]) is more than 80 µM. Also, the IC50 in data set [3] (setting [7]) was 46.3 ± 1.77 µM. The IC50 in data set [4] (setting [8]) is more than 80 µM.
`C=C(C)[C@@H]1CC[C@]2(/C=N/NC(=S)Nc3ccc(OC)cc3)CC[C@]3(C)C(CCC4[C@@]5(C)CC[C@H](O)C(C)(C)C5CC[C@]43C)C12` (stereo partly drawn) [Compound 8d, Lup-20(29)-ene-3β-ol-28-N-(4-methoxyphenyl)thiosemicarbazide] came in with a melting point of 203.7 to 205.2 °C. Also, in data set [1] (setting [5]), the half-maximal inhibitory concentration (IC50) was 38.4 ± 1.58 µM. The IC50 in data set [2] (setting [6]) is more than 80 µM. Moreover, the IC50 in data set [3] (setting [7]) was more than 80 µM. Besides, in data set [4] (setting [8]), the IC50 was more than 80 µM.
In the case of `C=C(C)[C@@H]1CC[C@]2(/C=N/NC(=S)Nc3ccc(C(C)(C)C)cc3)CC[C@]3(C)C(CCC4[C@@]5(C)CC[C@H](O)C(C)(C)C5CC[C@]43C)C12` (stereo partly drawn) [Compound 8e, Lup-20(29)-ene-3β-ol-28-N-(4-tert-butylphenyl)thiosemicarbazide], the melting point lay within 216.8 to 218.2 °C. For the same compound, the IC50 in data set [1] (setting [5]) stood at 46.4 ± 3.42 µM. Also, in data set [2] (setting [6]), the IC50 is more than 80 µM. Also, in data set [3] (setting [7]), the IC50 was more than 80 µM. In data set [4] (setting [8]), the IC50 was more than 80 µM.
In turn, `C=C(C)[C@@H]1CC[C@]2(/C=N/NC(=S)Nc3ccc(Cl)c(Cl)c3)CC[C@]3(C)C(CCC4[C@@]5(C)CC[C@H](O)C(C)(C)C5CC[C@]43C)C12` (stereo partly drawn) [Compound 8g, Lup-20(29)-ene-3β-ol-28-N-(3,4-dichlorophenyl)thiosemicarbazide] displayed a melting point of 219.8 to 221.8 °C. Further, the IC50 in data set [1] (setting [5]) was found to be 11.3 ± 1.07 µM. In addition, the IC50 in data set [2] (setting [6]) came out at 16.9 ± 1.05 µM. Besides, in data set [3] (setting [7]), the IC50 was 20.2 ± 0.87 µM. Also, the IC50 in data set [4] (setting [8]) was 174 ± 5.14 µM.
Consider `CO[C@@]12[C@H](COC(N)=O)C3=C(C(=O)C(C)=C(N)C3=O)N1C[C@@H]1N[C@@H]12` [Mitomycin, Mitomycin C, reference compound], for which the IC50 is 15.9 ± 1.03 µM in data set [1] (setting [5]), 12.8 ± 1.08 µM in data set [2] (setting [6]), 11.4 ± 0.87 µM in data set [3] (setting [7]) and 20.5 ± 1.02 µM in data set [4] (setting [8]).
